In patent US10704076B2, “Multi-tiered high through-put screen for compounds effective against bacterial biofilm and compounds effective for inhibiting and eradicating bacterial biofilm” (University of Cincinnati, priority 2013, dated 2020):
“Also recorded” adds a separate entry of the source.

What was measured:
A. baumannii = assay: HTS total bacterial growth assay (optical density OD560); type: cell-based, Acinetobacter baumannii; settings: 10 point dose-response 0.1-50 μM, NS* = no sigmoid curve observed; for AC50: Acinetobacter baumannii, read-out: Total Bacteria Growth AC50
From the text: (§1) Each HTS tier consisted of: (i) primary screening, (ii) confirmation screening and (iii) dose-response curve screening. Each tier of HTS included three distinct biological process assays. The first assay was an optical density measurement of bacteria growth in the presence of each compound reported as a total bacteria growth. In the second assay, resazurin solution was used as an indicator of metabolic activity to measure the live bacteria in the biofilms, reported as live biofilm. The final assay was crystal violet staining, which indicated the amount of biofilm formation and the effect of each compound on this process, reported as total biofilm formation.
(§2) Briefly, stationary phase bacteria grown in L-broth were diluted 1:200 into fresh L-broth and 50 μM of each test compound. After 20-24 hours, the optical density (OD560) of each suspension was measured using Zeiss Plate::Vision with a 560 BP filter (560 nm, 2.5% light intensity, 1 mm focus to bottom of plate, and exposure time of 100 ms). To measure bacterial viability in the biofilm, 50 μl of a 5 mg/ml resazurin solution in L-broth was added to each well after washing 3 times with 50 μl of PBS. The plates were then incubated at 37° C. for 30 or 180 min for A. baumannii and P. aeruginosa biofilms, respectively. Fluorescence was measured using Zeiss Plate::Vision at excitation and emission wavelengths of 535 and 580 nm, 100 ms exposure time, 2.5% intensity and a 2 mm focus to the bottom of the biofilms. To assess biofilm formation, plates were washed 3 times with PBS and then 50 μl of 0.01% of crystal violet was added to each well to assess bacterial biofilm formation as described in a similar borosilicate tube assay by O'Toole and Kolter. After incubation at room temperature for 30 min and removal of the crystal violet solution by washing with PBS, 95% ethanol was added to solubilize the crystal violet followed by incubation for 20 min at room temperature. Finally, the optical density of each plate was determined using measured by Zeiss Plate::Vision using the same settings used to measure total bacterial growth. These 3 steps were used in each of the three tiers for the HTS process: (i) single point primary screening at 10 μM, (ii) triplicate confirmation of hits from (i) at 10 μM and (iii) determination of AC50 values in 10 point dose-response at a concentration range of 0.1-50 μM) in hits from (ii). The AC50 represents the concentration of compound that inhibits 50% of bacterial growth, bacterial viability, or biofilm formation. Genedata Screener® Assay Analyzer Software (Ver. 9.0.0 Standard) was used to analyze data from all assay tiers. Compounds with an AC50 of less than 20 μM in one of the biological assays from the dose response screen were subject to additional investigation.

A. baumannii biofilm [1] = assay: HTS live biofilm assay (resazurin metabolic activity); type: cell-based, Acinetobacter baumannii; settings: Acinetobacter baumannii, 10 point dose-response 0.1-50 μM
From the text: as §1, §2

A. baumannii biofilm [2] = assay: HTS total biofilm formation assay (crystal violet staining); type: cell-based, Acinetobacter baumannii; settings: Acinetobacter baumannii, 10 point dose-response 0.1-50 μM
From the text: as §1, §2

[3] = tested on: A. baumannii established biofilm; assay: CLSM, effect of compound on the pre-existing biofilm; type: cell-based, Acinetobacter baumannii; settings: 24 hr; for killing of established A. baumannii biofilm (CLSM, in words): 300 μM; for Effect of compound on the pre-existing biofilm: Killing: Y / —
Method: (§3) Broad spectrum agents (effective against all three bacterial species) and single agent compounds identified as HTS hits were investigated with CLSM confirmation of inhibition of biofilm formation (culture of bacteria with compounds) or killing of bacteria residing within an established biofilm (compound addition after culturing biofilm). To evaluate inhibition of P. aeruginosa biofilms, bacteria were sub-cultured into 10% L-broth and grown at 37° C. until the OD600 reached 0.25. The bacteria were further diluted 1:100 into a modified 0.5×M63 minimum media (50 mM KH2PO4, 7.5 mM (NH4)2SO4, 9 μM FeSO4, 0.5% casamino acids, 0.2% glucose, and 1 mM MgSO4). A. baumannii biofilms were also grown in 10% L-broth until the OD600 reached 0.05 but diluted 1:10 into 5% L-broth media. S. epidermidis biofilm cultures were grown. Briefly, the bacteria were grown in TSB until the OD600 reached 0.75, and a 1:100 dilution of the bacteria was sub-cultured into phosphate buffered saline (PBS). All of the biofilm bacterial cultures were grown in 96-well plate chambers (MatTek Corp., Ashland, Mass.) in the presence of 10 μM of each compound or DMSO as a control and incubated for 18 hrs at 37° C. To investigate the ability of compounds to kill bacteria within pre-existing biofilms, biofilms were grown under the same conditions, but without test compound. These biofilms were washed once with PBS and incubated an additional 24 hr at 37° C. in PBS containing 300 μM of each compound. All biofilm cultures were then washed twice with 100 μL of PBS and stained using the LIVE/DEAD® BacLight™ Bacterial Viability Kit (Invitrogen). Finally, biofilm images were obtained using a Zeiss LSM510 META Confocal Microscope (Carl Zeiss, Inc., Germany). A 488 nm laser was used in conjunction with a Plan-Apochromat 100×/1.4 Oil DIC objective. Z-stacks were 8 bit and measured 127.3 μm×127.3 μm×16.0 μm in size. The filters used were 505-530 and 620-680 IR, as the excitation and emission wavelengths for red fluorescence are 490 nm and 635 nm, respectively, and 480 nm and 500 nm for green fluorescence. Three dimensional images were generated using the “Projection” ability on LSM Image Browser software (v.1.4.0.121) or Zeiss LSM image browser software version 3.5 (Carl Zeiss, Inc., Germany), and Live/Dead calculations were conducted based upon these images using MacBiophotonics ImageJ following the guidelines in the cell counting guide by C. Labno {Rasband, 1997-2011 #25; Labno, #2} at the University of Chicago Integrated Light Microscopy Core. The thickness of the biofilm was calculated using Comstat software. A hit was defined as a >50% dead to live ratio.
(§4) The CLSM experiment was performed in one or two or all bacteria used in this study depending on its activity. For the validation of HTS hits, 10 μM of compound was added to each bacterial suspension and the resulting biofilm stained with LIVE/DEAD® BacLight™ Bacterial Viability Kit. The images were analyzed to determine the live and dead ratios of biofilm bacteria, the thickness of biofilms, and structural attributes of biofilms.

P. aeruginosa biofilm [4] = assay: HTS live biofilm assay (resazurin metabolic activity); type: cell-based; settings: Pseudomonas aeruginosa, 10 point dose-response 0.1-50 μM
From the text: as §1, §2

P. aeruginosa biofilm [5] = assay: HTS total biofilm formation assay (crystal violet staining); type: cell-based, Pseudomonas aeruginosa; settings: Pseudomonas aeruginosa, 10 point dose-response 0.1-50 μM
From the text: as §1, §2

P. aeruginosa = assay: HTS total bacterial growth assay (optical density OD560); type: cell-based, Pseudomonas aeruginosa; settings: Pseudomonas aeruginosa, 10 point dose-response 0.1-50 μM, read-out: Total Bacteria Growth AC50
From the text: as §1, §2

P. aeruginosa biofilm [6] = assay: CLSM, co-culture of bacteria with compound (inhibition of biofilm formation); type: cell-based, Pseudomonas aeruginosa
Method: as §3, §4

A. baumannii biofilm [7] = assay: as above; type: cell-based, Acinetobacter baumannii; settings: for killing of residential bacteria, co-culture (CLSM, in words): 10 μM; for Co-culture of bacteria with compound: Killing: CLSM, 10 μM compound, 18 hrs, Y / —
Method: as §3, §4

Compound	AC50 (A. baumannii)	AC50 (A. baumannii biofilm [1])	AC50 (A. baumannii biofilm [2])	killing of established A. baumannii biofilm (CLSM, in words) [3]	Effect of compound on the pre-existing biofilm: Killing ([3]; CLSM, 300 μM compound)	Total Bacteria Growth AC50 (A. baumannii)	also measured
Oc1ccc2c(c1O)O[C@@]13NC(=S)N[C@@H](c4ccccc4)[C@H]1CCC[C@H]3[C@H]2c1ccccc1 (relative stereo) [Compound 24, (4R,4aR,7aS,8S,13aR)-rel-3,4,4a,5,6,7,7a,8-octahydro-11,12-dihydroxy-4,8-diphenyl-[1]Benzopyrano[3,2-i]quinazoline-2(1H)-thione]	> 200 µM	1.13 µM	3.75 µM	demonstrated killing of established biofilm culture; also recorded: effective against biofilm resident A. baumannii	Y (A hit was defined as a >50% dead to live ratio)		
O=C(O)c1cn(-c2ccc(F)cc2F)c2nc(N3CCC(O)CC3)c(F)cc2c1=O [Compound 14, 1-(2,4-difluorophenyl)-6-fluoro-1,4-dihydro-4-oxo-7-(4-hydroxy-1-piperidinyl)-1,8-Naphthyridine-3-carboxylic acid]							AC50 (P. aeruginosa biofilm [4]): 80.1 µM; AC50 (P. aeruginosa biofilm [5]): 13 µM; AC50 (P. aeruginosa): 13.6 µM; killing of residential bacteria, co-culture (CLSM, in words) (P. aeruginosa biofilm [6]; 10 μM): lethal to residential bacteria; Co-culture of bacteria with compound: Killing (P. aeruginosa biofilm [6]; CLSM, 10 μM compound, 18 hrs, Y / —): Y (A hit was defined as a >50% dead to live ratio)
O/N=C1/C=Cc2[nH]c(-c3ccccc3)cc2/C1=N/O [Compound 18, N-(4-nitroso-2-phenyl-1H-indol-5-yl)hydroxylamine]	17.7 µM	4.53 µM	14.6 µM	demonstrated killing of established biofilm culture; also recorded: effective against biofilm resident A. baumannii	Y (A hit was defined as a >50% dead to live ratio)		killing of residential bacteria, co-culture (CLSM, in words) (A. baumannii biofilm [7]): effective in killing the bacterium; Co-culture of bacteria with compound: Killing (A. baumannii biofilm [7]): Y (A hit was defined as a >50% dead to live ratio)
Nc1nonc1-c1nc2ccccc2n1CC(=O)N/N=C/c1cc(Br)cc(Br)c1O [Compound 21, 2-[2-(4-amino-1,2,5-oxadiazol-3-yl)-1H-benzimidazol-1-yl]-N′-[(E)-(3,5-dibromo-2-hydroxyphenyl)methylidene]acetohydrazide]		9.86 µM	14.6 µM			NS*	
O=C(N/N=C/c1cc(Br)c(O)cc1O)c1cc2c(ccc3ccccc32)o1 [Compound 23, N′-[(E)-(5-Bromo-2,4-dihydroxyphenyl)methylene]naphtho[2,1-b]furan-2-carbohydrazide]	> 200 µM	8.97 µM	17.5 µM				
CCCCC(C(=O)N/N=C/c1cc(Br)ccc1O)C(=O)N/N=C/c1cc(Br)ccc1O [Compound 25, N′1,N′3-Bis [(E)-(5-bromo-2-hydroxyphenyl)methylene]-2-butylmalonohydrazide]	> 200 µM	1.26 µM	5.11 µM				
Cc1n[nH]c(O)c1C(c1cccc(OCc2ccc(Cl)c(Cl)c2)c1)c1c(C)n[nH]c1O [Compound 26, 4-[{3-[(3,4-dichlorobenzyl)oxy]phenyl}(5-hydroxy-3-methyl-1H-pyrazol-4-yl)methyl]-3-methyl-1H-pyrazol-5-ol]		8.07 µM	7.6 µM	demonstrated killing of established biofilm culture; also recorded: effective against biofilm resident A. baumannii	Y (A hit was defined as a >50% dead to live ratio)	NS*	
Oc1c(Cl)cc(Cl)c(Cl)c1-c1nc2ccccc2[nH]1 [Compound 29, 2-(1H-benzoimidazol-2-YL)-3,4,6 Trichlrophenol]		> 200 µM	8.37 µM			NS*	
CCCCOC(=O)C(=O)CC(=O)/C=C/c1ccccc1 [Compound 30, Butyl (E)-2,4-dioxo-6-phenylhex-5-enoate]		2.35 µM	8.54 µM			NS*	
Oc1c(I)cc(I)cc1/C=N/c1ccc2[nH]c(-c3ccccc3)nc2c1 [Compound 31]	> 200 µM	17.4 µM	23.5 µM	demonstrated killing of established biofilm culture; also recorded: demonstrated ability in killing; also recorded: effective against biofilm resident A. baumannii	Y (A hit was defined as a >50% dead to live ratio)		killing of residential bacteria, co-culture (CLSM, in words) (A. baumannii biofilm [7]): effective in killing the bacterium; Co-culture of bacteria with compound: Killing (A. baumannii biofilm [7]): Y (A hit was defined as a >50% dead to live ratio); Effect of compound on the pre-existing biofilm: Dispersion ([3]; CLSM, 300 μM compound): did demonstrate dispersion activity
O=C(N/N=C/c1ccc(O)cc1O)c1cc(-c2ccccc2)nc2ccccc12 [Compound 33, N′-(2,4-dihydroxybenzylidene)-2-phenylquinoline-4-carbohydrazide]	> 200 µM	7.28 µM	17.2 µM				
C=CCSC1=NC(C)(C)CC2(CC(c3ccccc3)c3ccc(O)c(O)c3O2)N1 (stereo not drawn) [Compound 34, 3,4,5′,6′-tetrahydro-6′,6′-dimethyl-4-phenyl-2′-(2-propen-1-ylthio)-spiro[2H-1-benzopyran-2,4′(3′H)-pyrimidine]-7,8-diol]				effective against biofilm resident A. baumannii			killing of residential bacteria, co-culture (CLSM, in words) (A. baumannii biofilm [7]): effective in killing the bacterium
N-2-(4-methoxybenzothiazolyl)-2,3-dihydro-4-Methyl-5-oxo-1H,5HBenzo[ij]quinolizine-6-carboxamide [Compound 28]				effective against biofilm resident A. baumannii			
